Structures can show the parent of a compound that is named as a salt. Where two headings read alike, the source gives them in different places.
Legend:
Test in all cases: AK assay 384-well format, Prestwick library screening
[1] = system: E. coli; assay type: cell-based, Escherichia coli; details: Escherichia coli, 3 h, 50 μM final drug concentration
[2] = system: P. aeruginosa; assay type: cell-based, Pseudomonas aeruginosa; details: Pseudomonas aeruginosa, 3 h, 50 μM final drug concentration
[3] = system: E. faecium; assay type: cell-based, Enterococcus faecium; details: Enterococcus faecium, 3 h, 50 μM final drug concentration
[4] = system: S. aureus strain USA300-0114; assay type: cell-based, Staphylococcus aureus; details: Staphylococcus aureus, USA300, 3 h, 50 μM final drug concentration
[5] = system: A. baumannii strain 98-37-09; assay type: cell-based, Acinetobacter baumannii; details: Acinetobacter baumannii, 983709, 3 h, 50 μM final drug concentration
[6] = system: E. cloacae; assay type: cell-based, Enterobacter cloacae; details: Enterobacter cloacae, 3 h, 50 μM final drug concentration
[7] = system: K. pneumoniae; assay type: cell-based, Klebsiella pneumoniae; details: Klebsiella pneumoniae, 3 h, 50 μM final drug concentration
[8] = planktonic, cutoff for positive-scoring molecules 3-fold increase, read-out: AK-based Prestwick Library Screening Results, E. coli (fold increase in extracellular AK activity)
[9] = planktonic, cutoff for positive-scoring molecules 3-fold increase, read-out: AK-based Prestwick Library Screening Results, P. aeruginosa (fold increase in extracellular AK activity)
[10] = planktonic, cutoff for positive-scoring molecules 3-fold increase, read-out: AK-based Prestwick Library Screening Results, E. faecium (fold increase in extracellular AK activity)
[11] = planktonic, cutoff for positive-scoring molecules 3-fold increase, read-out: AK-based Prestwick Library Screening Results, S. aureus (fold increase in extracellular AK activity)
[12] = planktonic, cutoff for positive-scoring molecules 3-fold increase, read-out: AK-based Prestwick Library Screening Results, A. baumannii (fold increase in extracellular AK activity)
[13] = planktonic, cutoff for positive-scoring molecules 3-fold increase, read-out: AK-based Prestwick Library Screening Results, E. cloacae (fold increase in extracellular AK activity)
[14] = planktonic, cutoff for positive-scoring molecules 3-fold increase, read-out: AK-based Prestwick Library Screening Results, K. pneumoniae (fold increase in extracellular AK activity)
[15] = planktonic E. coli, […], read-out: AK-based Prestwick Library Screening Results, E. coli (increase in extracellular AK activity)
[16] = planktonic P. aeruginosa, […], read-out: AK-based Prestwick Library Screening Results, P. aeruginosa (increase in extracellular AK activity)
[17] = planktonic E. faecium, […], read-out: AK-based Prestwick Library Screening Results, E. faecium (increase in extracellular AK activity)
[18] = planktonic S. aureus, […], read-out: AK-based Prestwick Library Screening Results, S. aureus (increase in extracellular AK activity)
[19] = planktonic A. baumannii, […], read-out: AK-based Prestwick Library Screening Results, A. baumannii (increase in extracellular AK activity)
[20] = planktonic E. cloacae, […], read-out: AK-based Prestwick Library Screening Results, E. cloacae (increase in extracellular AK activity)
[21] = planktonic K. pneumoniae, […], read-out: AK-based Prestwick Library Screening Results, K. pneumoniae (increase in extracellular AK activity)
[22] = planktonic E. coli, 384-well, cutoff for positive-scoring molecules 3-fold increase, read-out: AK-based Prestwick Library Screening Results: E. coli (increase in extracellular AK activity)
[23] = planktonic P. aeruginosa, 384-well, cutoff for positive-scoring molecules 3-fold increase, read-out: AK-based Prestwick Library Screening Results: P. aeruginosa (increase in extracellular AK activity)
[24] = planktonic E. faecium, 384-well, cutoff for positive-scoring molecules 3-fold increase, read-out: AK-based Prestwick Library Screening Results: E. faecium (increase in extracellular AK activity)
[25] = planktonic S. aureus, 384-well, cutoff for positive-scoring molecules 3-fold increase, read-out: AK-based Prestwick Library Screening Results: S. aureus (increase in extracellular AK activity)
[26] = planktonic A. baumannii, 384-well, cutoff for positive-scoring molecules 3-fold increase, read-out: AK-based Prestwick Library Screening Results: A. baumannii (increase in extracellular AK activity)
[27] = planktonic E. cloacae, 384-well, cutoff for positive-scoring molecules 3-fold increase, read-out: AK-based Prestwick Library Screening Results: E. cloacae (increase in extracellular AK activity)
[28] = planktonic K. pneumoniae, 384-well, cutoff for positive-scoring molecules 3-fold increase, read-out: AK-based Prestwick Library Screening Results: K. pneumoniae (increase in extracellular AK activity)

CC/C(=C(/CC)c1ccc(O)cc1)c1ccc(O)cc1 [Diethylstilbestrol]
fold induction at 50 µM [1, 8]: 0.9 | fold induction at 50 µM [2, 9]: 0.8 | fold induction at 50 µM [3, 10]: 1.1 | fold induction at 50 µM [4, 11]: 0.6 | fold induction at 50 µM [5, 12]: 1.8 | fold induction at 50 µM [6, 13]: 1.4 | fold induction at 50 µM [7, 14]: 0.7

CC(=O)OCC(=O)[C@@]1(OC(C)=O)[C@@H](C)C[C@H]2[C@@H]3C[C@H](F)C4=CC(=O)C=C[C@]4(C)[C@@]3(F)[C@@H](O)C[C@@]21C [Diflorasone Diacetate]
fold induction at 50 µM ([1]; planktonic, cutoff for positive 3-fold increase, read-out: AK-based Prestwick Library Screening Results, E. coli (fold increase in extracellular AK activity)): 1.1 | fold induction at 50 µM ([2]; planktonic, cutoff for positive 3-fold increase, read-out: AK-based Prestwick Library Screening Results, P. aeruginosa (fold increase in extracellular AK activity)): 1 | fold induction at 50 µM ([3]; planktonic, cutoff for positive 3-fold increase, read-out: AK-based Prestwick Library Screening Results, E. faecium (fold increase in extracellular AK activity)): 1.1 | fold induction at 50 µM ([4]; planktonic, cutoff for positive 3-fold increase, read-out: AK-based Prestwick Library Screening Results, S. aureus (fold increase in extracellular AK activity)): 1.1 | fold induction at 50 µM ([5]; planktonic, cutoff for positive 3-fold increase, read-out: AK-based Prestwick Library Screening Results, A. baumannii (fold increase in extracellular AK activity)): 0.9 | fold induction at 50 µM ([6]; planktonic, cutoff for positive 3-fold increase, read-out: AK-based Prestwick Library Screening Results, E. cloacae (fold increase in extracellular AK activity)): 1.4 | fold induction at 50 µM ([7]; planktonic, cutoff for positive 3-fold increase, read-out: AK-based Prestwick Library Screening Results, K. pneumoniae (fold increase in extracellular AK activity)): 1

O=C(O)c1cc(-c2ccc(F)cc2F)ccc1O [Diflunisal]
fold induction at 50 µM ([1]; 384-well format, […], read-out: AK-based Prestwick Library Screening Results, E. coli (increase in extracellular AK activity)): 0.7 | fold induction at 50 µM ([2]; 384-well format, […], read-out: AK-based Prestwick Library Screening Results, P. aeruginosa (increase in extracellular AK activity)): 0.6 | fold induction at 50 µM ([3]; 384-well format, […], read-out: AK-based Prestwick Library Screening Results, E. faecium (increase in extracellular AK activity)): 0.9 | fold induction at 50 µM ([4]; 384-well format, […], read-out: AK-based Prestwick Library Screening Results, S. aureus (increase in extracellular AK activity)): 0.6 | fold induction at 50 µM ([5]; 384-well format, […], read-out: AK-based Prestwick Library Screening Results, A. baumannii (increase in extracellular AK activity)): 0.7 | fold induction at 50 µM ([6]; 384-well format, […], read-out: AK-based Prestwick Library Screening Results, E. cloacae (increase in extracellular AK activity)): 1.2 | fold induction at 50 µM ([7]; 384-well format, […], read-out: AK-based Prestwick Library Screening Results, K. pneumoniae (increase in extracellular AK activity)): 0.6

C[C@]12CC[C@H](O)C[C@H]1CC[C@@H]1[C@@H]2CC[C@]2(C)[C@@H](C3=CC(=O)OC3)CC[C@]12O [Digitoxigenin]
fold induction at 50 µM [1, 15]: 0.9 | fold induction at 50 µM [2, 16]: 0.8 | fold induction at 50 µM [3, 17]: 0.9 | fold induction at 50 µM [4, 18]: 0.6 | fold induction at 50 µM [5, 19]: 0.8 | fold induction at 50 µM [6, 20]: 1.2 | fold induction at 50 µM [7, 21]: 0.7

C[C@]12CC[C@H](O)C[C@H]1CC[C@@H]1[C@@H]2C[C@@H](O)[C@]2(C)[C@@H](C3=CC(=O)OC3)CC[C@]12O [Digoxigenin]
fold induction at 50 µM [1, 8]: 0.7 | fold induction at 50 µM [2, 9]: 0.5 | fold induction at 50 µM [3, 10]: 0.8 | fold induction at 50 µM [4, 11]: 0.6 | fold induction at 50 µM [5, 12]: 0.6 | fold induction at 50 µM [6, 13]: 0.7 | fold induction at 50 µM [7, 14]: 0.6

C[C@H]1O[C@@H](O[C@H]2[C@@H](O)C[C@H](O[C@H]3[C@@H](O)C[C@H](O[C@H]4CC[C@@]5(C)[C@H](CC[C@@H]6[C@@H]5C[C@@H](O)[C@]5(C)[C@@H](C7=CC(=O)OC7)CC[C@]65O)C4)O[C@@H]3C)O[C@@H]2C)C[C@H](O)[C@@H]1O [Digoxin]
fold induction at 50 µM [1, 15]: 0.8 | fold induction at 50 µM [2, 16]: 0.8 | fold induction at 50 µM [3, 17]: 0.9 | fold induction at 50 µM [4, 18]: 0.8 | fold induction at 50 µM [5, 19]: 0.9 | fold induction at 50 µM [6, 20]: 1.2 | fold induction at 50 µM [7, 21]: 0.7

CC(C)[C@@]1(NC(=O)[C@@H]2C[C@@H]3c4cccc5[nH]cc(c45)C[C@H]3N(C)C2)O[C@@]2(O)[C@@H]3CCCN3C(=O)[C@H](Cc3ccccc3)N2C1=O [Dihydroergocristine mesylate]
fold induction at 50 µM [1, 22]: 0.7 | fold induction at 50 µM [2, 23]: 0.6 | fold induction at 50 µM [3, 24]: 0.9 | fold induction at 50 µM [4, 25]: 0.5 | fold induction at 50 µM [5, 26]: 0.7 | fold induction at 50 µM [6, 27]: 0.6 | fold induction at 50 µM [7, 28]: 0.6

CN[C@@H]1[C@H](O[C@H]2[C@H](O[C@H]3[C@H](O)[C@@H](O)[C@H](NC(=N)N)[C@@H](O)[C@@H]3NC(=N)N)O[C@@H](C)[C@]2(O)CO)O[C@@H](CO)[C@H](O)[C@H]1O [Dihydrostreptomycin sulfate]
fold induction at 50 µM [1, 22]: 1.2 | fold induction at 50 µM [2, 23]: 0.9 | fold induction at 50 µM [3, 24]: 1 | fold induction at 50 µM [4, 25]: 1.2 | fold induction at 50 µM [5, 26]: 1.2 | fold induction at 50 µM [6, 27]: 1.3 | fold induction at 50 µM [7, 28]: 0.7

COc1cc(C(=O)OCCCN2CCCN(CCCOC(=O)c3cc(OC)c(OC)c(OC)c3)CC2)cc(OC)c1OC [Dilazep dihydrochloride]
fold induction at 50 µM [1, 22]: 1.5 | fold induction at 50 µM [2, 23]: 1.3 | fold induction at 50 µM [3, 24]: 1.1 | fold induction at 50 µM [4, 25]: 1.2 | fold induction at 50 µM [5, 26]: 1.4 | fold induction at 50 µM [6, 27]: 1.1 | fold induction at 50 µM [7, 28]: 1.4

CN(C(=O)C(Cl)Cl)c1ccc(OC(=O)c2ccco2)cc1 [Diloxanide furoate]
fold induction at 50 µM [1, 8]: 1 | fold induction at 50 µM [2, 9]: 1 | fold induction at 50 µM [3, 10]: 0.8 | fold induction at 50 µM [4, 11]: 0.7 | fold induction at 50 µM [5, 12]: 0.9 | fold induction at 50 µM [6, 13]: 1.2 | fold induction at 50 µM [7, 14]: 0.7

COc1ccc([C@@H]2Sc3ccccc3N(CCN(C)C)C(=O)[C@@H]2OC(C)=O)cc1 [Diltiazem hydrochloride]
fold induction at 50 µM [1, 22]: 1 | fold induction at 50 µM [2, 23]: 0.9 | fold induction at 50 µM [3, 24]: 0.9 | fold induction at 50 µM [4, 25]: 0.8 | fold induction at 50 µM [5, 26]: 1 | fold induction at 50 µM [6, 27]: 1.5 | fold induction at 50 µM [7, 28]: 1
